Measured values published in patent US20080009511A1, “Cancer treatment with compounds inhibiting PKC alpha” (priority 2004, published 2008).

Tests used:
[1] = tested on: A431 human epidermoid carcinoma cells; assay: Cell viability assay (trypan blue dye exclusion), viable cells counted at day 6; type: cell-based; settings: 10 micromoles
Method: (§1) The following cancer cells were maintained in Dulbecco's modified Eagle medium (DMEM) supplemented with 10 percent bovine calf serum. Cells were seeded for 24 hours. Then they were treated with PKC inhibitors or left untreated. The cells were then collected periodically and evaluated using trypan blue dye exclusion to assess viability using the method described by C Y Chen, et al., in J. Biol. Chem. 273:16700-16709. Cultures containing about 4×10^4 cells were treated with 5 micromoles of Gö7874 (except that PC3 prostate cancer cells were treated with 10 micromoles) and the viable cells were counted at day 6. […] Cultures containing about 4×10^4 cells were treated with or without 10 micromoles of Gö6850 and the viable cells were counted at day 6. […] Cultures containing about 4×10^4 cells were treated with or without 10 micromoles of NGIC-I and the viable cells were counted at day 6. […] Cultures containing about 4×10^4 cells were treated with or without 10 micromoles of Ro31-7549 and the viable cells were counted at day 6. […] Cultures containing about 4×10^4 cells were treated with or without 10 micromoles of Ro31-8220 and the viable cells were counted at day 6. […] Cultures containing about 4×10^4 cells were treated with or without 10 micromoles of Ro31-8425 and the viable cells were counted at day 6. […] Cultures containing about 4×10^4 cells were treated with or without 10 micromoles of Ro31-0432 and the viable cells were counted at day 6.

[2] = tested on: AGS human gastric cancer cells; assay: as above; type: cell-based; settings: 10 micromoles
Method: as §1

[3] = tested on: H460 human lung cancer cells; assay: as above; type: cell-based; settings: 10 micromoles
Method: as §1

[4] = tested on: HT29 human colon cancer cells; assay: as above; type: cell-based; settings: 10 micromoles
Method: as §1

[5] = tested on: Hela human cervical cancer cells; assay: as above; type: cell-based; settings: 10 micromoles
Method: as §1

[6] = tested on: HepG2 human liver cancer cells; assay: as above; type: cell-based; settings: 10 micromoles
Method: as §1

[7] = tested on: Jurkat cells (a human acute T-cell leukemia cell line); assay: as above; type: cell-based; settings: 10 micromoles
Method: as §1

[8] = tested on: MDA-MB-468 human breast cancer cells; assay: as above; type: cell-based; settings: 10 micromoles
Method: as §1

[9] = tested on: NBT-II human bladder cancer cells; assay: as above; type: cell-based; settings: 10 micromoles
Method: as §1

[10] = tested on: PANC-1 human pancreatic carcinoma cells; assay: as above; type: cell-based; settings: 10 micromoles
Method: as §1

[11] = tested on: PC3 human prostate cancer cells; assay: as above; type: cell-based; settings: 10 micromoles
Method: as §1

[12] = tested on: U251 human glioma cells; assay: as above; type: cell-based; settings: 10 micromoles
Method: as §1

[13] = tested on: KB oral cancer cells; assay: as above; type: cell-based, human; settings: 10 micromoles
Method: as §1

[14] = tested on: human cancer cells; assay: Cell viability assay, summary over the panel of cancer cells; type: cell-based; settings: 10 micromoles; day 6; cell lines not named as going to apoptosis
Method: The following cancer cells were maintained in Dulbecco's modified Eagle medium (DMEM) supplemented with 10 percent bovine calf serum. Cells were seeded for 24 hours. Then they were treated with PKC inhibitors or left untreated. The cells were then collected periodically and evaluated using trypan blue dye exclusion to assess viability using the method described by C Y Chen, et al., in J. Biol. Chem. 273:16700-16709. Cultures containing about 4×10^4 cells were treated with or without 10 micromoles of Gö6850 and the viable cells were counted at day 6. […] Cultures containing about 4×10^4 cells were treated with or without 10 micromoles of NGIC-I and the viable cells were counted at day 6. […] Cultures containing about 4×10^4 cells were treated with or without 10 micromoles of Ro31-7549 and the viable cells were counted at day 6. […] Cultures containing about 4×10^4 cells were treated with or without 10 micromoles of Ro31-8220 and the viable cells were counted at day 6. […] Cultures containing about 4×10^4 cells were treated with or without 10 micromoles of Ro31-8425 and the viable cells were counted at day 6. […] Cultures containing about 4×10^4 cells were treated with or without 10 micromoles of Ro31-0432 and the viable cells were counted at day 6.

[15] = about 4×10^4 cells seeded, untreated 3.8 ± 0.4

Cn1cc(C2=C(c3cn(CCCSC(=N)N)c4ccccc34)C(=O)NC2=O)c2ccccc21 [Ro31-8220]
Treated (cell number × 10^5) ([1]; about 4×10^4 cells seeded, untreated 5.4 ± 0.4): 2.1 × 10^5 | % inhibiton ([1]; growth vs untreated): 60% | cells that went to apoptosis upon treatment [2]: all | Treated (cell number × 10^5) ([2]; about 4×10^4 cells seeded, untreated 2.4 ± 0.3): 0 × 10^5 | % inhibiton ([2]; growth vs untreated): * (indicates the inhibitor causes significant cell death, and cell number is less than originally seeded cell number.) | Treated (cell number × 10^5) ([3]; about 4×10^4 cells seeded, untreated 2.4 ± 0.2): 0.4 × 10^5 | % inhibiton ([3]; growth vs untreated): 85% | Treated (cell number × 10^5) [4, 15]: 0.6 × 10^5 | % inhibiton ([4]; growth vs untreated): 85% | cells that went to apoptosis upon treatment [5]: significant number | Treated (cell number × 10^5) ([5]; about 4×10^4 cells seeded, untreated 3.4 ± 0.4): 6.0 × 10^5 | % inhibiton ([5]; growth vs untreated): * (indicates the inhibitor causes significant cell death, and cell number is less than originally seeded cell number.) | Treated (cell number × 10^5) ([6]; about 4×10^4 cells seeded, untreated 4.2 ± 0.4): 0.4 × 10^5 | % inhibiton ([6]; growth vs untreated): 90% | Treated (cell number × 10^5) ([7]; about 4×10^4 cells seeded, untreated 8.8 ± 0.4): 0.5 × 10^5 | % inhibiton ([7]; growth vs untreated): 94% | cells that went to apoptosis upon treatment [8]: significant number | Treated (cell number × 10^5) ([8]; about 4×10^4 cells seeded, untreated 6.1 ± 0.4): 0.2 ± 0.05 × 10^5 | % inhibiton ([8]; growth vs untreated): * (indicates the inhibitor causes significant cell death, and cell number is less than originally seeded cell number.) | cells that went to apoptosis upon treatment [9]: all | Treated (cell number × 10^5) ([9]; about 4×10^4 cells seeded, untreated 2.9 ± 0.4): 0 × 10^5 | % inhibiton ([9]; growth vs untreated): * (indicates the inhibitor causes significant cell death, and cell number is less than originally seeded cell number.) | cells that went to apoptosis upon treatment [10]: all | Treated (cell number × 10^5) ([10]; about 4×10^4 cells seeded, untreated 2.1 ± 0.3): 0 × 10^5 | % inhibiton ([10]; growth vs untreated): * (indicates the inhibitor causes significant cell death, and cell number is less than originally seeded cell number.) | Treated (cell number × 10^5) ([11]; about 4×10^4 cells seeded, untreated 7.1 ± 0.3): 2.7 × 10^5 | % inhibiton ([11]; growth vs untreated): 62% | Treated (cell number × 10^5) ([12]; about 4×10^4 cells seeded, untreated 9.6 ± 0.5): 1.4 × 10^5 | % inhibiton ([12]; growth vs untreated): 85% | cells that went to apoptosis upon treatment [13]: all | Treated (cell number × 10^5) [13, 15]: 0 × 10^5 | % inhibiton ([13]; growth vs untreated): * (indicates the inhibitor causes significant cell death, and cell number is less than originally seeded cell number.) | inhibition of growth in contrast to untreated cells, range over the other treated cancer cells [14]: 60-94%
